Holding throughout (experiment): AK assay 384-well format, Prestwick library screening
The test system of one experiment is E. faecium. In kind it is cell-based, Enterococcus faecium. The following applies: 50 μM final drug concentration; for fold induction at 50 µM: Enterococcus faecium, 3 h.
The test system of experiment [1] is A. baumannii strain 98-37-09. The class given is cell-based, Acinetobacter baumannii. Particulars: 50 μM final drug concentration; for fold induction at 50 µM: Acinetobacter baumannii, 983709, 3 h.
The next experiment concerns E. cloacae. In kind it is cell-based, Enterobacter cloacae. The following applies: 50 μM final drug concentration; for fold induction at 50 µM: Enterobacter cloacae, 3 h.
In another experiment the test system is P. aeruginosa. The class given is cell-based, Pseudomonas aeruginosa. The following applies: 50 μM final drug concentration; for fold induction at 50 µM: Pseudomonas aeruginosa, 3 h.
Experiment [2] deals with S. aureus strain USA300-0114. The class given is cell-based, Staphylococcus aureus. Particulars: 50 μM final drug concentration; for fold induction at 50 µM: Staphylococcus aureus, USA300, 3 h.
For another experiment, the system named is E. coli. The class given is cell-based, Escherichia coli. Particulars: 50 μM final drug concentration; for fold induction at 50 µM: Escherichia coli, 3 h.
Another experiment has as its system K. pneumoniae. The class given is cell-based, Klebsiella pneumoniae. Particulars: 50 μM final drug concentration; for fold induction at 50 µM: Klebsiella pneumoniae, 3 h.
Where [3] appears, read: 384-well format, cutoff for positive-scoring molecules 3-fold increase, read-out: AK-based Prestwick Library Screening Results, E. faecium (increase in extracellular AK activity).
[4] abbreviates: 384-well format, cutoff for positive-scoring molecules 3-fold increase, read-out: AK-based Prestwick Library Screening Results, A. baumannii (increase in extracellular AK activity).
Setting [5] is: 384-well format, cutoff for positive-scoring molecules 3-fold increase, read-out: AK-based Prestwick Library Screening Results, E. cloacae (increase in extracellular AK activity).
The mark [6] stands for this setting: 384-well format, cutoff for positive-scoring molecules 3-fold increase, read-out: AK-based Prestwick Library Screening Results, P. aeruginosa (increase in extracellular AK activity).
[7] abbreviates: 384-well format, cutoff for positive-scoring molecules 3-fold increase, read-out: AK-based Prestwick Library Screening Results, S. aureus (increase in extracellular AK activity).
The mark [8] stands for this setting: 384-well format, cutoff for positive-scoring molecules 3-fold increase, read-out: AK-based Prestwick Library Screening Results, E. coli (increase in extracellular AK activity).
The mark [9] stands for this setting: 384-well format, cutoff for positive-scoring molecules 3-fold increase, read-out: AK-based Prestwick Library Screening Results, K. pneumoniae (increase in extracellular AK activity).
The mark [10] stands for this setting: planktonic E. faecium, 384-well, cutoff for positive-scoring molecules 3-fold increase, read-out: AK-based Prestwick Library Screening Results: E. faecium (increase in extracellular AK activity).
[11] abbreviates: planktonic A. baumannii, 384-well, cutoff for positive-scoring molecules 3-fold increase, read-out: AK-based Prestwick Library Screening Results: A. baumannii (increase in extracellular AK activity).
[12] abbreviates: planktonic E. cloacae, 384-well, cutoff for positive-scoring molecules 3-fold increase, read-out: AK-based Prestwick Library Screening Results: E. cloacae (increase in extracellular AK activity).
Where [13] appears, read: planktonic P. aeruginosa, 384-well, cutoff for positive-scoring molecules 3-fold increase, read-out: AK-based Prestwick Library Screening Results: P. aeruginosa (increase in extracellular AK activity).
Setting [14] is: planktonic S. aureus, 384-well, cutoff for positive-scoring molecules 3-fold increase, read-out: AK-based Prestwick Library Screening Results: S. aureus (increase in extracellular AK activity).
The mark [15] stands for this setting: planktonic E. coli, 384-well, cutoff for positive-scoring molecules 3-fold increase, read-out: AK-based Prestwick Library Screening Results: E. coli (increase in extracellular AK activity).
Where [16] appears, read: planktonic K. pneumoniae, 384-well, cutoff for positive-scoring molecules 3-fold increase, read-out: AK-based Prestwick Library Screening Results: K. pneumoniae (increase in extracellular AK activity).

Like-named read-outs stand apart in the source and are kept apart here.

`COc1cc(/C=C/C(=O)N2CCC=CC2=O)cc(OC)c1OC` [Piperlongumine]: the “AK-based Prestwick Library Screening Results, E. faecium (fold increase in extracellular AK activity)” value in the experiment on E. faecium (planktonic, […]) is recorded as 1.0. Further, the “AK-based Prestwick Library Screening Results, A. baumannii (fold increase in extracellular AK activity)” value in experiment [1] (planktonic, […]) worked out at 1.0. For the same molecule, the “AK-based Prestwick Library Screening Results, E. cloacae (fold increase in extracellular AK activity)” value with E. cloacae (planktonic, […]) came out at 1.6. Besides, the “AK-based Prestwick Library Screening Results, P. aeruginosa (fold increase in extracellular AK activity)” value in the experiment with P. aeruginosa (planktonic, […]) was determined as 1.1. For the same molecule, the “AK-based Prestwick Library Screening Results, S. aureus (fold increase in extracellular AK activity)” value in experiment [2] (planktonic, […]) is recorded as 1.0. Also, the “AK-based Prestwick Library Screening Results, E. coli (fold increase in extracellular AK activity)” value in the experiment with E. coli (planktonic, […]) is listed as 1.2. In addition, the “AK-based Prestwick Library Screening Results, K. pneumoniae (fold increase in extracellular AK activity)” value with K. pneumoniae (planktonic, […]) turned out to be 1.0.

Consider `Cl.NCC(O)c1ccc(O)cc1` (racemic) [(+,−)-Octopamine hydrochloride], for which the “AK-based Prestwick Library Screening Results, E. faecium (fold increase in extracellular AK activity)” value with E. faecium ([…]) is reported as 1.0. In addition, in experiment [1] ([…]), the “AK-based Prestwick Library Screening Results, A. baumannii (fold increase in extracellular AK activity)” value is on record as 1.3. In addition, the “AK-based Prestwick Library Screening Results, E. cloacae (fold increase in extracellular AK activity)” value with E. cloacae ([…]) is given as 1.4. Besides, the “AK-based Prestwick Library Screening Results, P. aeruginosa (fold increase in extracellular AK activity)” value in the experiment on P. aeruginosa ([…]) was 1.0. For the same molecule, the “AK-based Prestwick Library Screening Results, S. aureus (fold increase in extracellular AK activity)” value in experiment [2] ([…]) was found to be 1.3. Moreover, the “AK-based Prestwick Library Screening Results, E. coli (fold increase in extracellular AK activity)” value in the experiment on E. coli ([…]) worked out at 1.3. For the same molecule, the “AK-based Prestwick Library Screening Results, K. pneumoniae (fold increase in extracellular AK activity)” value in the experiment on K. pneumoniae ([…]) stood at 1.1.

With `COC(=O)C1=CO[C@@H](C)[C@H]2CN3CCc4c([nH]c5ccccc45)[C@@H]3C[C@H]12.Cl` [Ajmalicine hydrochloride], the “AK-based Prestwick Library Screening Results, E. faecium (increase in extracellular AK activity)” value in the experiment with E. faecium (planktonic E. faecium, cutoff for positive-scoring molecules 3-fold increase) is listed as 0.9. Further, the “AK-based Prestwick Library Screening Results, A. baumannii (increase in extracellular AK activity)” value in experiment [1] (planktonic A. baumannii, cutoff for positive-scoring molecules 3-fold increase) amounted to 0.9. Also, the “AK-based Prestwick Library Screening Results, E. cloacae (increase in extracellular AK activity)” value with E. cloacae (planktonic E. cloacae, cutoff for positive-scoring molecules 3-fold increase) is listed as 1.2. Further, the “AK-based Prestwick Library Screening Results, P. aeruginosa (increase in extracellular AK activity)” value in the experiment on P. aeruginosa (planktonic P. aeruginosa, cutoff for positive-scoring molecules 3-fold increase) is listed as 0.9. For the same molecule, the “AK-based Prestwick Library Screening Results, S. aureus (increase in extracellular AK activity)” value in experiment [2] (planktonic S. aureus, cutoff for positive-scoring molecules 3-fold increase) is on record as 0.5. Besides, in the experiment with E. coli (planktonic E. coli, cutoff for positive-scoring molecules 3-fold increase), the “AK-based Prestwick Library Screening Results, E. coli (increase in extracellular AK activity)” value is recorded as 0.9. For the same molecule, in the experiment on K. pneumoniae (planktonic K. pneumoniae, cutoff for positive-scoring molecules 3-fold increase), the “AK-based Prestwick Library Screening Results, K. pneumoniae (increase in extracellular AK activity)” value is listed as 0.7.

With `COc1ccc(CC2c3cc(OC)c(OC)cc3CC[N+]2(C)CCC(=O)OCCCCCOC(=O)CC[N+]2(C)CCc3cc(OC)c(OC)cc3C2Cc2ccc(OC)c(OC)c2)cc1OC` (stereo not shown) [Atracurium besylate], the fold induction at 50 µM was 0.8 with E. faecium (setting [3]); 0.4 in experiment [1] (setting [4]); 0.3 in the experiment on E. cloacae (setting [5]); 0.4 in the experiment on P. aeruginosa (setting [6]); 0.5 in experiment [2] (setting [7]); 0.5 in the experiment with E. coli (setting [8]). In the experiment on K. pneumoniae (setting [9]), the fold induction at 50 µM is 0.5.

Take `COC(=O)C1=C(C)NC(C)=C(C(=O)OC)C1c1ccccc1[N+](=O)[O-]` [Nifedipine]: the fold induction at 50 µM with E. faecium (setting [10]) was determined as 0.9; in experiment [1] (setting [11]), 1.5; in the experiment on E. cloacae (setting [12]), 1.4; in the experiment on P. aeruginosa (setting [13]) it was 1; in experiment [2] (setting [14]) it was 0.5; with E. coli (setting [15]) it was 1.4. Moreover, the fold induction at 50 µM in the experiment on K. pneumoniae (setting [16]) amounted to 0.9.

Turning to `CCc1nc(N)nc(N)c1-c1ccc(Cl)cc1` [Pyrimethamine], the fold induction at 50 µM was determined as 1 in the experiment on E. faecium (setting [3]); 2.5 in experiment [1] (setting [4]); 1.3 in the experiment with E. cloacae (setting [5]); 0.9 in the experiment with P. aeruginosa (setting [6]); 0.7 in experiment [2] (setting [7]); 1.4 in the experiment on E. coli (setting [8]). The fold induction at 50 µM with K. pneumoniae (setting [9]) was found to be 0.7.

`C[C@]12C=CC(=O)C=C1CC[C@@H]1[C@@H]2[C@@H](O)C[C@@]2(C)[C@H]1CC[C@]2(O)C(=O)CO` [Prednisolone]: the fold induction at 50 µM in the experiment on E. faecium (setting [3]) is 1; in experiment [1] (setting [4]), 1; in the experiment on E. cloacae (setting [5]), 1.3; with P. aeruginosa (setting [6]), 1; in experiment [2] (setting [7]), 0.8; in the experiment on E. coli (setting [8]) it was 1. Besides, the fold induction at 50 µM in the experiment on K. pneumoniae (setting [9]) worked out at 0.7.

For the molecule `Cc1cc(N)c2ccccc2[n+]1CCCCCCCCCC[n+]1c(C)cc(N)c2ccccc21` [Dequalinium dichloride], the fold induction at 50 µM in the experiment on E. faecium (planktonic, cutoff for positive 3-fold increase, read-out: AK-based Prestwick Library Screening Results, E. faecium (fold increase in extracellular AK activity)) stood at 1.1; in experiment [1] (planktonic, cutoff for positive 3-fold increase, read-out: AK-based Prestwick Library Screening Results, A. baumannii (fold increase in extracellular AK activity)), 3.2; in the experiment on E. cloacae (planktonic, cutoff for positive 3-fold increase, read-out: AK-based Prestwick Library Screening Results, E. cloacae (fold increase in extracellular AK activity)), 1.8; in the experiment on P. aeruginosa (planktonic, cutoff for positive 3-fold increase, read-out: AK-based Prestwick Library Screening Results, P. aeruginosa (fold increase in extracellular AK activity)), 2.3; in experiment [2] (planktonic, cutoff for positive 3-fold increase, read-out: AK-based Prestwick Library Screening Results, S. aureus (fold increase in extracellular AK activity)), 1.2; in the experiment on E. coli (planktonic, cutoff for positive 3-fold increase, read-out: AK-based Prestwick Library Screening Results, E. coli (fold increase in extracellular AK activity)) it was 3. Besides, the fold induction at 50 µM with K. pneumoniae (planktonic, cutoff for positive 3-fold increase, read-out: AK-based Prestwick Library Screening Results, K. pneumoniae (fold increase in extracellular AK activity)) worked out at 1.6.

Take `Clc1ccc(CCC(Cn2ccnc2)Sc2c(Cl)cccc2Cl)cc1` (stereo not shown) [Butoconazole nitrate]: the fold induction at 50 µM with E. faecium (setting [10]) was 3.3; in experiment [1] (setting [11]), 2; in the experiment on E. cloacae (setting [12]), 0.5; in the experiment with P. aeruginosa (setting [13]), 0.5; in experiment [2] (setting [14]), 0.6; in the experiment with E. coli (setting [15]) it was 0.7. The fold induction at 50 µM in the experiment on K. pneumoniae (setting [16]) stood at 0.7.

For `CCC(C)(CN(C)C)OC(=O)c1ccccc1.Cl` (stereo not shown) [Amyleine hydrochloride], the “AK-based Prestwick Library Screening Results, E. faecium (increase in extracellular AK activity)” value with E. faecium (384-well format, […]) turned out to be 1.1. Moreover, the “AK-based Prestwick Library Screening Results, A. baumannii (increase in extracellular AK activity)” value in experiment [1] (384-well format, […]) is given as 1.1. Also, the “AK-based Prestwick Library Screening Results, E. cloacae (increase in extracellular AK activity)” value in the experiment with E. cloacae (384-well format, […]) is recorded as 1.2. The “AK-based Prestwick Library Screening Results, P. aeruginosa (increase in extracellular AK activity)” value with P. aeruginosa (384-well format, […]) is given as 0.9. For the same molecule, in experiment [2] (384-well format, […]), the “AK-based Prestwick Library Screening Results, S. aureus (increase in extracellular AK activity)” value is recorded as 1.1. In addition, the “AK-based Prestwick Library Screening Results, E. coli (increase in extracellular AK activity)” value with E. coli (384-well format, […]) is on record as 1.4. The “AK-based Prestwick Library Screening Results, K. pneumoniae (increase in extracellular AK activity)” value in the experiment on K. pneumoniae (384-well format, […]) was 0.8.

For the origin of these results see patent publication US10004701B2, “Methods and compositions for treating infection” (UNIVERSITY OF ROCHESTER, priority 2012, dated 2018).
